The values below come from patent publication US9963464B2, “Macrocyclic compounds” (Bayer Pharma Aktiengesellschaft, priority 2014, dated 2018).

The test system of data set [1] is MOLM-13 cells. Put plainly: Proliferation assay MOLM-13. The class given is cell-based. The conditions noted are these: Homo sapiens, 72-hour exposure, Cell Titre-Glo, read-out: Inhibition of MOLM-13 cell proliferation IC50. On the procedure: (§1) Cultivated tumour cells (HeLa, human cervical tumour cells, ATCC CCL-2; NCI-H460, human non-small cell lung carcinoma cells, ATCC HTB-177; A2780, human ovarian carcinoma cells, ECACC #93112519; DU 145, hormone-independent human prostate carcinoma cells, ATCC HTB-81; HeLa-MaTu-ADR, multidrug-resistant human cervical carcinoma cells, EPO-GmbH Berlin; Caco-2, human colorectal carcinoma cells, ATCC HTB-37; B16F10, mouse melanoma cells, ATCC CRL-6475) were plated at a density of 5,000 cells/well (DU145, HeLa-MaTu-ADR), 3,000 cells/well (NCI-H460, HeLa), 2,500 cells/well (A2780), 1,500 cells/well (Caco-2), or 1,000 cells/well (B16F10) in a 96-well multititer plate in 200 μL of their respective growth medium supplemented 10% fetal calf serum. […] Cell proliferation was determined by staining the cells with crystal violet: the cells were fixed by adding 20 μl/measuring point of an 11% glutaric aldehyde solution for 15 minutes at room temperature. […] The extinction was determined by photometry at a wavelength of 595 nm. The change of cell number, in percent, was calculated by normalization of the measured values to the extinction values of the zero-point plate (=0%) and the extinction of the untreated (0 μm) cells (=100%). […] Cell viability was assessed after 72-hour exposure with the Cell Titre-Glo Luminescent Cell Viability Assay (Promega). […]

Data set [2] in a line: In vivo pharmacokinetics in rats. The conditions noted are these: male, Wistar, rat, plasma, iv, i.v. bolus dosing, read-out: t1/2: terminal half-life (converted). On the procedure:
7. In Vivo Pharmacokinetics in Rats
For in vivo pharmacokinetic experiments test compounds were administered to male Wistar rats intravenously at doses of 0.3 to 1 mg/kg formulated as solutions using either rat plasma or solubilizers such as PEG400 in well-tolerated amounts.
For pharmacokinetics after intravenous administration test compounds were given as i.v. bolus and blood samples were taken at 2 min, 8 min, 15 min, 30 min, 45 min, 1 h, 2 h, 4 h, 6 h, 8 h and 24 h after dosing. […] Blood was collected into Lithium-Heparin tubes (Monovetten®, Sarstedt) and centrifuged for 15 min at 3000 rpm. An aliquot of 100 μL from the supernatant (plasma) was taken and precipitated by addition of 400 μL ice cold acetonitrile and frozen at −20 OC over night. Samples were subsequently thawed and centrifuged at 3000 rpm, 4° C. for 20 minutes. Aliquots of the supernatants were taken for analytical testing using an Agilent 1200 HPLC-system with LCMS/MS detection. PK parameters were calculated by non-compartmental analysis using a PK calculation software.
PK parameters derived from concentration-time profiles after i.v.: CLplasma: Total plasma clearance of test compound (in L/kg/h); CLblood: Total blood clearance of test compound: CLplasma*Cp/Cb (in L/kg/h) with Cp/Cb being the ratio of concentrations in plasma and blood, AUCnorm: Area under the concentration-time curve from t=0 h to infinity (extrapolated) divided by the administered dose (in kg*h/L); t1/2: terminal half-life (in h).

Data set [3] concerns A2780 cells. Put plainly: Proliferation assay A2780. The data set is classed as cell-based. The following applies: Homo sapiens, A2780, 96 h; 4 days, crystal violet; read-out: Inhibition of A2780 cell proliferation IC50. As to the method: as §1

With `CS(=N)(=O)Cc1cc2cc(c1)OCCCCOc1cc(F)ccc1-c1nc(ncc1F)N2` (racemic) [Example 1, (rac)-16,20-Difluoro-9-[(S-methylsulfonimidoyl)methyl]-2,3,4,5-tetrahydro-12H-13,17-(azeno)-11,7-(metheno)-1,6,12,14-benzodioxadiazacyclononadecine], the IC50 in data set [1] was found to be 4 nM. For the same compound, in data set [2], the half-life was 2.2 h.
The corresponding values for `CS(=N)(=O)Cc1cc2nc(c1)OCCCOc1cc(F)ccc1-c1cc(ncc1F)N2` (racemic) [Example 5, (rac)-15,19-Difluoro-8-[(S-methylsulfonimidoyl)methyl]-3,4-dihydro-2H,11H-10,6-(azeno)-12,16-(metheno)-1,5,11,13-benzodioxadiazacyclooctadecine] are 2 nM and 7.2 h.
Turning to `CS(=N)(=O)Cc1cc2cc(c1)OCCCOc1cc(F)ccc1-c1nc(ncc1F)N2` (racemic) [Example 15, (rac)-15,19-difluoro-8-[(S-methylsulfonimidoyl)methyl]-3,4-dihydro-2H,11H-12,16-(azeno)-10,6-(metheno)-1,5,11,13-benzodioxadiazacyclooctadecine], in data set [2], the half-life was 4.9 h.
On to `CSCc1cc2nc(c1)OCCCCOc1cc(F)ccc1-c1cc(ncc1F)N2` [Example 12, 16,20-Difluoro-9-[(methylsulfanyl)methyl]-2,3,4,5-tetrahydro-12H-11,7-(azeno)-13,17-(metheno)-1,6,12,14-benzodioxadiazacyclononadecine], for which, in data set [3], the IC50 is 115 nM.
